{"source": "ChEMBL document CHEMBL1122859", "about": "“Novel vasopressin analogues that help define a minimum effective antagonist pharmacophore” (J Med Chem, 1985)", "key": {"[1]": {"target": "T1, Vasopressin V2 receptor (Sus scrofa, UniProt P32307)", "T1 sequence (P32307 whole entry)": "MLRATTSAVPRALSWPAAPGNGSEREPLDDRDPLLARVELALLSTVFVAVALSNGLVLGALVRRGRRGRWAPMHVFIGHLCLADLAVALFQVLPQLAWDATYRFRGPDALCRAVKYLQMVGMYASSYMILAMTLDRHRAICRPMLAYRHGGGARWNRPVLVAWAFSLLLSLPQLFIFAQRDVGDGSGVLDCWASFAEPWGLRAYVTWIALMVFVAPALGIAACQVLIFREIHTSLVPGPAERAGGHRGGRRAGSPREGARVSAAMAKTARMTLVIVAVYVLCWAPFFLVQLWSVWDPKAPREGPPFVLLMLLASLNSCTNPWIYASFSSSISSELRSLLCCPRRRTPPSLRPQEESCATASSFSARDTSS", "assay": "Tested for inhibition of [3H]LVP binding to vasopressin receptor in medullary membranes of pig kidney.", "format": "cell membranes"}, "[2]": {"target": "T1, Vasopressin V2 receptor", "assay": "Tested for inhibition of vasopressin-stimulated adenylate cyclase of medullary membranes of pig kidney."}, "[3]": {"test_system": "Rattus norvegicus", "assay": "Dose required to lower urine osmolality to 300 mOsm/kg in rat.", "format": "functional"}}, "note": "Numbered stars: 1 amine (or outer) side, 2 acyl side, 3 side chain; on linkers, the order of the positions; unused ones are H or OH. Bridge positions count the residues as written; N and C are the ends. Square brackets hold non-standard residues; d marks the D form. Peptide text beside a SMILES is read from it. * marks the point of attachment. X1 = O=C(CC1(S[*:2])CCCCC1)[*:1]; NH(CH2)5NH2 = NCCCCCN*"}
{"smiles": "CCOc1ccc(C[C@H]2NC(=O)CC3(CCCCC3)SSC[C@@H](C(=O)N[C@@H](CCCCN)C(N)=O)NC(=O)[C@H](CC(N)=O)NC(=O)[C@H](C(C)C)NC(=O)[C@H](Cc3ccccc3)NC2=O)cc1", "note": "[listing 1 of 2 here]", "values": [{"measurement": "Ki", "setting": "[1]", "value": 26, "unit": "nM"}, {"measurement": "Ki", "setting": "[2]", "value": 5.8, "unit": "nM"}]}
{"smiles": "CCOc1ccc(C[C@H]2NC(=O)CC3(CCCCC3)SSC[C@@H](C(=O)N3CCC[C@H]3C(=O)N[C@@H](CCCCN)C(N)=O)NC(=O)[C@H](CC(N)=O)NC(=O)[C@H](C(C)C)NC(=O)[C@H](Cc3ccccc3)NC2=O)cc1", "note": "[listing 1 of 2 here]", "values": [{"measurement": "Ki", "setting": "[1]", "value": 37, "unit": "nM"}, {"measurement": "Ki", "setting": "[2]", "value": 9.4, "unit": "nM"}]}
{"smiles": "CCOc1ccc(C[C@H]2NC(=O)CC3(CCCCC3)SSC[C@@H](C(=O)N3CCC[C@H]3C(=O)NCCCCCN)NC(=O)[C@H](CC(N)=O)NC(=O)[C@H](C(C)C)NC(=O)[C@H](Cc3ccccc3)NC2=O)cc1", "note": "([dY](Et)FVNCP-{NH(CH2)5NH2}; linker N-5 via X1) [listing 1 of 2 here]", "values": [{"measurement": "ED300", "setting": "[3]", "value": 0.027, "unit": "mg/kg"}]}
{"smiles": "CCOc1ccc(C[C@H]2NC(=O)CC3(CCCCC3)SSC[C@@H](C(=O)N[C@@H](CCCCN)C(N)=O)NC(=O)[C@H](CC(N)=O)NC(=O)[C@H](C(C)C)NC(=O)[C@H](Cc3ccccc3)NC2=O)cc1", "note": "[listing 2 of 2 here]", "values": [{"measurement": "ED300", "setting": "[3]", "value": 0.059, "unit": "mg/kg"}]}
{"smiles": "CCOc1ccc(C[C@H]2NC(=O)CC3(CCCCC3)SSC[C@@H](C(=O)NCCCCCN)NC(=O)[C@H](CC(N)=O)NC(=O)[C@H](C(C)C)NC(=O)[C@H](Cc3ccccc3)NC2=O)cc1", "note": "[listing 1 of 2 here]", "values": [{"measurement": "ED300", "setting": "[3]", "value": 0.094, "unit": "mg/kg"}]}
{"smiles": "CCOc1ccc(C[C@H]2NC(=O)CC3(CCCCC3)SSC[C@@H](C(=O)N3CCC[C@H]3C(=O)NCCCCCN)NC(=O)[C@H](CC(N)=O)NC(=O)[C@H](C(C)C)NC(=O)[C@H](Cc3ccccc3)NC2=O)cc1", "note": "([dY](Et)FVNCP-{NH(CH2)5NH2}; linker N-5 via X1) [listing 2 of 2 here]", "values": [{"measurement": "Ki", "setting": "[1]", "value": 30, "unit": "nM"}, {"measurement": "Ki", "setting": "[2]", "value": 7.2, "unit": "nM"}]}
{"smiles": "CCOc1ccc(C[C@H]2NC(=O)CC3(CCCCC3)SSC[C@@H](C(=O)N3CCC[C@H]3C(=O)N[C@@H](CCCCN)C(N)=O)NC(=O)[C@H](CC(N)=O)NC(=O)[C@H](C(C)C)NC(=O)[C@H](Cc3ccccc3)NC2=O)cc1", "note": "[listing 2 of 2 here]", "values": [{"measurement": "ED300", "setting": "[3]", "value": 0.022, "unit": "mg/kg"}]}
{"smiles": "CCOc1ccc(C[C@H]2NC(=O)CC3(CCCCC3)SSC[C@@H](C(=O)NCCCCCN)NC(=O)[C@H](CC(N)=O)NC(=O)[C@H](C(C)C)NC(=O)[C@H](Cc3ccccc3)NC2=O)cc1", "note": "[listing 2 of 2 here]", "values": [{"measurement": "Ki", "setting": "[1]", "value": 19, "unit": "nM"}, {"measurement": "Ki", "setting": "[2]", "value": 6.8, "unit": "nM"}]}
{"smiles": "CCOc1ccc(C[C@H]2NC(=O)CC3(CCCCC3)SSC[C@@H](C(=O)N3CCC[C@H]3C(=O)N[C@@H](CCCN=C(N)N)C(=O)NCC(N)=O)NC(=O)[C@H](CC(N)=O)NC(=O)[C@H](C(C)C)NC(=O)[C@H](Cc3ccccc3)NC2=O)cc1", "note": "([dY](Et)FVNCPRG-NH2; linker N-5 via X1)", "values": [{"measurement": "ED300", "setting": "[3]", "value": 0.0112, "unit": "mg/kg"}]}
{"smiles": "CCOc1ccc(C[C@H]2NC(=O)CC3(CCCCC3)SSC[C@@H](C(=O)N3CCC[C@H]3C(=O)N[C@@H](CCCNC(=N)N)C(N)=O)NC(=O)[C@H](CC(N)=O)NC(=O)[C@H](C(C)C)NC(=O)[C@H](Cc3ccccc3)NC2=O)cc1", "note": "([dY](Et)FVNCPR-NH2; linker N-5 via X1)", "values": [{"measurement": "ED300", "setting": "[3]", "value": 0.0092, "unit": "mg/kg"}]}
